Experimental data published in paper PMC5564600 (Oncotarget, 2017).

Key:
Assay in all cases: biochemical
Type in all cases: binding
[1] = target: T1, panel of 442 kinases (Homo sapiens, UniProt O60285); conditions: ARK5; for remaining activity at 1 µM: read-out: % of control at 1 µM
T1 construct: purchased Ambit Biosciences (scanMAXX KINOMEscan)
T1 sequence (O60285 1-661): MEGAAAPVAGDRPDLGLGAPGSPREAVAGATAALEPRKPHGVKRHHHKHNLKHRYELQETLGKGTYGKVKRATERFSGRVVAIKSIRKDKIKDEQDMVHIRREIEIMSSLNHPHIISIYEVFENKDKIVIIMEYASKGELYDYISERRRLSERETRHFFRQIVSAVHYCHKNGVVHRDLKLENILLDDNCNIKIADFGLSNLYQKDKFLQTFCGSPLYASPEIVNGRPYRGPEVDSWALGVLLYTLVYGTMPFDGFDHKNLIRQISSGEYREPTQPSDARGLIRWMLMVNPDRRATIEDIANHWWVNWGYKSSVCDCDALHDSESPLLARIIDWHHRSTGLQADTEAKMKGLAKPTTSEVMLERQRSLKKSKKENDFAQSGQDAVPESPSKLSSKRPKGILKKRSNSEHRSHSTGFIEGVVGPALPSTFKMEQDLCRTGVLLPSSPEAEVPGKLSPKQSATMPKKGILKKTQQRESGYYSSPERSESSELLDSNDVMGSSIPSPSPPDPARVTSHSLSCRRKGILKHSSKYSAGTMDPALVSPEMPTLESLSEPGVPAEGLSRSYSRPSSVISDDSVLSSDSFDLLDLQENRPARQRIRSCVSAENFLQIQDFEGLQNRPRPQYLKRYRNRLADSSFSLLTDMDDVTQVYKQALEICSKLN

[2] = target: T2, panel of 442 kinases (Homo sapiens, UniProt P54753); conditions: EPHB3; for remaining activity at 1 µM: read-out: % of control at 1 µM
T2 construct: purchased Ambit Biosciences (scanMAXX KINOMEscan)
T2 sequence (P54753 34-998): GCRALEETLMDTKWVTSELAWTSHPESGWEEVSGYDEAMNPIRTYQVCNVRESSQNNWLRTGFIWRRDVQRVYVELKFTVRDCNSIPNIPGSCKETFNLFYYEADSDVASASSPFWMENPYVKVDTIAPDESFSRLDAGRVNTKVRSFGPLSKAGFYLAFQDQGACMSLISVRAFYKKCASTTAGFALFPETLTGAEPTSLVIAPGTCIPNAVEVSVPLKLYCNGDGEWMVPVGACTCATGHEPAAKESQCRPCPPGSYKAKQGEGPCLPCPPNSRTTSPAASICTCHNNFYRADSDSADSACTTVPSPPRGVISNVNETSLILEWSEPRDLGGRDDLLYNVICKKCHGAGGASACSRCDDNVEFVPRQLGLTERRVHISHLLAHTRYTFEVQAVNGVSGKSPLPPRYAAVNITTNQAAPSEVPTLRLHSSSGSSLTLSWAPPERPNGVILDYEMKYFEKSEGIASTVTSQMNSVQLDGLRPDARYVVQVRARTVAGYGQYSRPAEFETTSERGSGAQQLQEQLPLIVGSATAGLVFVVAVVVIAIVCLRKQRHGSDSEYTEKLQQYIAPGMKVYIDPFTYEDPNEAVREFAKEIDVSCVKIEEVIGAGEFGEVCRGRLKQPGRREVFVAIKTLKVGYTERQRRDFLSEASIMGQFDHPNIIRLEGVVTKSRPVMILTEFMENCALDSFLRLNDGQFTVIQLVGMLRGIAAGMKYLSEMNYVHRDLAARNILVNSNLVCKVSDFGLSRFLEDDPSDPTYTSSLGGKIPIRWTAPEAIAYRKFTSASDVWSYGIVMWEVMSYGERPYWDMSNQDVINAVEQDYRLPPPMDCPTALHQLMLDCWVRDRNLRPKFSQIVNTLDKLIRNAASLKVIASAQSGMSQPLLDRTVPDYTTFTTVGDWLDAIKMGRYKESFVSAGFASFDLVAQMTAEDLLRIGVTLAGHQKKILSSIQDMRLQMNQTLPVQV

[3] = target: T3, panel of 442 kinases (Homo sapiens, UniProt P07949, V804L); conditions: kinase RET(V804L); for remaining activity at 1 µM: read-out: RET(V804L) (% of control at 1 µM)
T3 construct: purchased Ambit Biosciences (scanMAXX KINOMEscan)

[4] = target: T4, panel of 442 kinases (Homo sapiens, UniProt O14757); conditions: CHEK1; for remaining activity at 1 µM: read-out: % of control at 1 µM
T4 construct: purchased Ambit Biosciences (scanMAXX KINOMEscan)
T4 sequence (O14757 1-476): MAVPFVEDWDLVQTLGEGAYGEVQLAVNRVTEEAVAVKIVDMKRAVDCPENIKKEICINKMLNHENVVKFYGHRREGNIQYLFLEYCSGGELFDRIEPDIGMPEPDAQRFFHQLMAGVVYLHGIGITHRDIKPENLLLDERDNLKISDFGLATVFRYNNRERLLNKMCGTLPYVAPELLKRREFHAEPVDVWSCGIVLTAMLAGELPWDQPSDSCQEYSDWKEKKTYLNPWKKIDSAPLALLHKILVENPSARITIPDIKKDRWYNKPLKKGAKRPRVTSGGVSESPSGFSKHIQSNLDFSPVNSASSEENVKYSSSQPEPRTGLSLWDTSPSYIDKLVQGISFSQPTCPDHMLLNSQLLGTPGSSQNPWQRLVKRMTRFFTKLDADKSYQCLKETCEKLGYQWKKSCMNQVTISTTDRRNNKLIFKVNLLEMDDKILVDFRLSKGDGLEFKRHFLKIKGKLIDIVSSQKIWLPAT

[5] = target: T5, panel of 442 kinases (Homo sapiens, UniProt Q04759); conditions: kinase PRKCQ; for remaining activity at 1 µM: read-out: PRKCQ (% of control at 1 µM)
T5 construct: purchased Ambit Biosciences (scanMAXX KINOMEscan)

[6] = target: T6, panel of 442 kinases (Homo sapiens, UniProt P51956); conditions: kinase NEK3; for remaining activity at 1 µM: read-out: % of control at 1 µM
T6 construct: purchased Ambit Biosciences (scanMAXX KINOMEscan)
T6 sequence (P51956 1-506): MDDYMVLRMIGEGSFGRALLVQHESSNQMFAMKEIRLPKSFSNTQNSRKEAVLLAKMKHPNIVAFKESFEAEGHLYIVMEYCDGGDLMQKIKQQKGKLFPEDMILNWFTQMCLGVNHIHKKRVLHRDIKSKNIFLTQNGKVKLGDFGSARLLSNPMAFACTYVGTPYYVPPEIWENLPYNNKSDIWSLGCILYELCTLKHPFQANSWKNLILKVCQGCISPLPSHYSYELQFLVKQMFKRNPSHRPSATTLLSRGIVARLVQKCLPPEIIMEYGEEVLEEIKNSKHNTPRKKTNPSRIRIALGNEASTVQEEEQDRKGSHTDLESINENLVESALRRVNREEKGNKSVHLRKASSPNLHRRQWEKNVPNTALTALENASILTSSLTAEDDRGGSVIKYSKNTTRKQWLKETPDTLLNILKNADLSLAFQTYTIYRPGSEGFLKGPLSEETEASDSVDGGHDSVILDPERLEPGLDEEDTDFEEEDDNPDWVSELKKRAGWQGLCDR

[7] = 10 µM, read-out: % of control at 10 µM

T5 sequence (Q04759 whole entry): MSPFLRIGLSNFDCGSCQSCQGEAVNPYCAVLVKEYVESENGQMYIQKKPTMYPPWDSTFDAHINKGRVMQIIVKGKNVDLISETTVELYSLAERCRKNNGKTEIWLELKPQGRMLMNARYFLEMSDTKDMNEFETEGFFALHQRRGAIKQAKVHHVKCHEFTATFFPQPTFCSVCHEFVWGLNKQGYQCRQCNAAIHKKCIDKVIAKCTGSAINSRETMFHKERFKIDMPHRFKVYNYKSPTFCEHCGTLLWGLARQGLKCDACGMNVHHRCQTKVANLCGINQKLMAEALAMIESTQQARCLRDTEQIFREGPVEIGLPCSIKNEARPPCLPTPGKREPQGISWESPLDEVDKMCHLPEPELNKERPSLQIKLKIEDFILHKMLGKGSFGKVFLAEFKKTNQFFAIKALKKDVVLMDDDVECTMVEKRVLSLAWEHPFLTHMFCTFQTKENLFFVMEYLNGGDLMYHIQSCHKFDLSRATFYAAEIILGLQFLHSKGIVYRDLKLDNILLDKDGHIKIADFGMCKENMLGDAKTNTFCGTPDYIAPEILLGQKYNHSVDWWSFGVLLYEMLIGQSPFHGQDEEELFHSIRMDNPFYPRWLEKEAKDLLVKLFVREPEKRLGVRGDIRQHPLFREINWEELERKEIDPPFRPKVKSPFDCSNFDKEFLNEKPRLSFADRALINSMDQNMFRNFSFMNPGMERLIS
T3 sequence (P07949 29-1114 V804L): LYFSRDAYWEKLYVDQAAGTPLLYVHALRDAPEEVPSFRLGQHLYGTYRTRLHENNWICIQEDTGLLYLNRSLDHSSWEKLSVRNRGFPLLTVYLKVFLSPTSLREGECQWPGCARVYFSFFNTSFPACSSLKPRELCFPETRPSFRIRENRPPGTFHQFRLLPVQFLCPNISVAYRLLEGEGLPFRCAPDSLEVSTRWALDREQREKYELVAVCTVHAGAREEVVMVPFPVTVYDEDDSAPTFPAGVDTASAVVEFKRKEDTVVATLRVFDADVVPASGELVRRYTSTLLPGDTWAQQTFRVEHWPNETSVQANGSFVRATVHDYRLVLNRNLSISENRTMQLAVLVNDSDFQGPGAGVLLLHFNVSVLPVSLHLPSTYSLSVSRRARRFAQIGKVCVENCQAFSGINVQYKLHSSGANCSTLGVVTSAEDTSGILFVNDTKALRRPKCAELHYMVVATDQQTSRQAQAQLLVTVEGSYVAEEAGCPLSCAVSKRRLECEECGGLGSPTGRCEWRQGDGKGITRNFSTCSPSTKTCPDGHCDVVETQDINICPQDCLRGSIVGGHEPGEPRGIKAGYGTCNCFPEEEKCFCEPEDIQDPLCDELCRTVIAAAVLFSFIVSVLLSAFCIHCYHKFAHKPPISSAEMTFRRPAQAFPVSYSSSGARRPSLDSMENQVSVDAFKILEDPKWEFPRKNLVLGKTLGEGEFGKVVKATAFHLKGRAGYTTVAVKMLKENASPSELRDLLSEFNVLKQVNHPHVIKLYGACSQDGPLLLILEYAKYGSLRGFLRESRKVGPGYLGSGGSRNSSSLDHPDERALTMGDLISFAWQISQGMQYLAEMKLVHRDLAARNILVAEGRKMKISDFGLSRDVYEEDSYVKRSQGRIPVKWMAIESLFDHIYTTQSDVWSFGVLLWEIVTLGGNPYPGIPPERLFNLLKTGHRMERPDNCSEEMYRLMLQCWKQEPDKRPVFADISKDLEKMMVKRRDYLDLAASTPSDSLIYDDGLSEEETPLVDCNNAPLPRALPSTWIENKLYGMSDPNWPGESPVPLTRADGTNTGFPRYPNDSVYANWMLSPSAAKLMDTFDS

`Nc1cc(C(F)(F)F)c(-c2cc(N3CCOCC3)nc(N3CCOCC3)n2)cn1` [Buparlisib] was tested, and the remaining activity at 1 µM [1] was 100%, the remaining activity at 10 µM [1, 7] was 100% and the remaining activity at 1 µM [2] was 91%. For the same compound, the remaining activity at 10 µM [2, 7] was 100%, the remaining activity at 1 µM [3] was 100% and the remaining activity at 10 µM ([3]; 10 µM, read-out: RET(V804L) (% of control at 10 µM)) was 100%. It also gave a remaining activity at 1 µM [4] of 79%, a remaining activity at 10 µM [4, 7] of 82% and a remaining activity at 1 µM [5] of 91%. For the same compound, the remaining activity at 10 µM ([5]; 10 µM, read-out: PRKCQ (% of control at 10 µM)) was 100%, the remaining activity at 1 µM [6] was 99% and the remaining activity at 10 µM [6, 7] was 100%.

`Cn1c(=O)n(-c2ccc(C(C)(C)C#N)cc2)c2c3cc(-c4cnc5ccccc5c4)ccc3ncc21` [Dactolisib, 2-methyl-2-[4-(3-methyl-2-oxo-8-quinolin-3-yl-2,3-dihydroimidazo[4,5-c]quinolin-1-yl)-phenyl] propionitrile] showed a remaining activity at 1 µM [1] of 32%, a remaining activity at 1 µM [2] of 70% and a remaining activity at 1 µM [3] of 99%. For the same compound, the remaining activity at 1 µM [4] was 100%, the remaining activity at 1 µM [5] was 85% and the remaining activity at 1 µM [6] was 78%.

For `COc1ncc(-c2ccc3nccc(-c4ccnnc4)c3c2)cc1NS(=O)(=O)c1ccc(F)cc1F` [Omipalisib], the remaining activity at 1 µM [1] was 100%, the remaining activity at 1 µM [2] was 100% and the remaining activity at 1 µM [3] was 99%. For the same compound, the remaining activity at 1 µM [4] was 100%, the remaining activity at 1 µM [5] was 100% and the remaining activity at 1 µM [6] was 93%.

With `FC(F)c1nc2ccccc2n1-c1nc(N2CCOCC2)nc(N2CCOCC2)n1` [ZSTK474, 2-(difluoromethyl)-1-[4,6-di(4-morpholinyl)-1,3,5-triazin-2-yl]-1H-benzimidazole] the remaining activity at 1 µM [1] was 100%, the remaining activity at 1 µM [2] was 56% and the remaining activity at 1 µM [3] was 93%. It also gave a remaining activity at 1 µM [4] of 92%, a remaining activity at 1 µM [5] of 98% and a remaining activity at 1 µM [6] of 73%.
